Test systems include MCF7 breast; MDA-MB-231 breast; SK-OV-3 ovarian; SF-268 CNS; HCC-2998 colon; EKVX NSCLC; UACC-257 melanoma; SK-MEL-28 melanoma; HS 578T breast; OVCAR-8 ovarian.
Holding throughout (test): NCI tumour cell line growth inhibition, 48 h

Values after ≈ are worked out from the molar mass of the structure shown. Values joined by “and” are separate entries in the source; they are usually repeats but may differ in a detail not shown here. Identical values can stand only once.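 Values below derive from 48-hour exposures of cells grown in 96-well plates, with endpoints linearly interpolated between the two concentrations bracketing the appropriate inhibition level. GI50 = concentration required for 50% inhibition of growth. TGI: concentration producing complete growth inhibition.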

Turning to `CCOC(=O)c1c(Cl)c2c(n1Cc1ccccc1)-c1oncc1CCC2`, the GI50 in the test with MCF7 breast is 3.21 µM; with MDA-MB-231 breast it was 3.51 µM; in the test with SK-OV-3 ovarian, greater than 100 µM; in the test on SF-268 CNS it was greater than 100 µM. Also, the TGI in the test with MCF7 breast, in the test on MDA-MB-231 breast, with SK-OV-3 ovarian and with SF-268 CNS was greater than 100 µM throughout.
On to `CC(C)(C)OC(=O)CC(NC(=O)OCc1ccccc1)NC(=O)OC(C)(C)C` (configuration not stated), for which the GI50 in the test on HCC-2998 colon was 94.4 µg/mL; in the test with EKVX NSCLC, 38.8 µg/mL; in the test on UACC-257 melanoma it was 35.8 µg/mL (≈ 90.8 µM); with SK-MEL-28 melanoma, 67.6 µg/mL; in the test on HS 578T breast, 85.4 µg/mL; with MCF7 breast, 44.1 µg/mL. Besides, the GI50 in the test on MDA-MB-231 breast was 52.8 µg/mL; in the test with OVCAR-8 ovarian, 57.5 µg/mL; in the test with SF-268 CNS, 87.1 µg/mL.
Regarding `O=c1c(-c2ccccc2)c(SCCCN2CCCCC2)n(-c2ccccc2)c(=S)n1-c1ccccc1`, the TGI in the test with HCC-2998 colon is 16.8 µM; with EKVX NSCLC, greater than 100 µM; with UACC-257 melanoma it was 31.9 µM; in the test on SK-MEL-28 melanoma, 33.2 µM; in the test on HS 578T breast, greater than 100 µM; in the test on MCF7 breast, 31.4 µM. Moreover, the TGI worked out at 27.9 µM in the test with MDA-MB-231 breast, 45.4 µM in the test with SK-OV-3 ovarian and 37.9 µM with OVCAR-8 ovarian.
With `C=CCN1C(=O)NC(=O)/C(=C/c2c3ccccc3cc3ccccc23)C1=O`, the TGI in the test on HCC-2998 colon worked out at 28.4 µM; with EKVX NSCLC, 48.8 µM; in the test with SK-MEL-28 melanoma it was 68.1 µM; with SK-OV-3 ovarian, 66 µM; with OVCAR-8 ovarian, 55 µM; with SF-268 CNS it was 60.8 µM.
As to `O=c1c2ccccc2nc2n1CCc1c-2[nH]c2ccccc12`, the TGI with EKVX NSCLC came to 60.5 µM; with SK-MEL-28 melanoma it was 62.4 µM; with HS 578T breast it was 50.5 µM; with SK-OV-3 ovarian, 37.8 µM; in the test on OVCAR-8 ovarian it was 71.8 µM; in the test on SF-268 CNS, 75.2 µM. Further, the GI50 with HS 578T breast was 22.6 µM.
In the case of `C/C=C(/CCC1NCCc2c1[nH]c1ccccc21)[Si](C)(C)C` (configuration not stated), the TGI was > 100 µM and 22.3 µM with EKVX NSCLC; > 100 µM and 26.2 µM in the test with SK-OV-3 ovarian; > 100 µM and 24.4 µM in the test on OVCAR-8 ovarian; > 100 µM and 29 µM in the test with SF-268 CNS.
As to `NCCCCNOCCCN`, the TGI in the test with HCC-2998 colon, in the test with EKVX NSCLC, in the test with UACC-257 melanoma, with SK-MEL-28 melanoma, in the test on HS 578T breast and with MCF7 breast was greater than 100 µM throughout. The TGI in the test with SK-OV-3 ovarian, in the test on OVCAR-8 ovarian and with SF-268 CNS was greater than 100 µM each time.
On to `O=c1[nH]c2ccccc2c2oc3ccccc3c12`, for which the TGI in the test with HCC-2998 colon, in the test on EKVX NSCLC, in the test on UACC-257 melanoma, in the test with SK-MEL-28 melanoma, in the test with HS 578T breast and in the test with MCF7 breast was greater than 100 µM throughout. For the same compound, the TGI with MDA-MB-231 breast, in the test with SK-OV-3 ovarian, with OVCAR-8 ovarian and in the test on SF-268 CNS was greater than 100 µM each time.
As to `O=[N+]([O-])c1ccc(N/N=C\c2cc(Br)ccc2O)nc1`, the GI50 is 3.18 µM in the test on HCC-2998 colon; 2.4 µM in the test on EKVX NSCLC; 2.05 µM in the test with SK-MEL-28 melanoma; 2.13 µM in the test on HS 578T breast; 0.489 µM with MCF7 breast; 0.511 µM in the test on MDA-MB-231 breast. Moreover, the GI50 with SK-OV-3 ovarian was 1.27 µM; in the test on OVCAR-8 ovarian, 0.415 µM; in the test with SF-268 CNS, 0.452 µM. Besides, the TGI in the test with HCC-2998 colon was greater than 100 µM; in the test with EKVX NSCLC, 7.69 µM; with SK-MEL-28 melanoma, greater than 100 µM; with HS 578T breast it was 8.93 µM; in the test with MCF7 breast it was greater than 100 µM; with MDA-MB-231 breast, 4.76 µM. The figures for the TGI in the test on SK-OV-3 ovarian, with OVCAR-8 ovarian and with SF-268 CNS were 12 µM, 8.86 µM and 4.18 µM, respectively.
As for `NC(Cc1cc(I)c(Oc2ccc(O)c(I)c2)c(I)c1)C(=O)O` (configuration not stated), the TGI in the test on EKVX NSCLC, with UACC-257 melanoma, with SK-MEL-28 melanoma, in the test with HS 578T breast, with MCF7 breast and in the test on MDA-MB-231 breast was greater than 100 µM each time. For the same compound, the TGI with SK-OV-3 ovarian, in the test on OVCAR-8 ovarian and with SF-268 CNS was greater than 100 µM each time.
Take `O=S1(=O)C(=C(c2ccccc2)c2ccccc2)S(=O)(=O)c2ccccc21`: the TGI in the test with HCC-2998 colon, in the test on EKVX NSCLC, in the test on UACC-257 melanoma, with SK-MEL-28 melanoma, with MCF7 breast and in the test on SK-OV-3 ovarian was greater than 100 µM in each case. Moreover, the TGI in the test with OVCAR-8 ovarian and in the test with SF-268 CNS was greater than 100 µM each time.

Values taken from PubChem BioAssay (NCI).
